Where two headings read alike, the source gives them in different places.
Key:
[1] = test system: Mycobacterium avium ATCC700898; experiment: Determination of IC85 against M. avium (resazurin fluorescence); assay type: cell-based; settings: 37° C., 3 days incubation then resazurin, fluorescence one day later
[2] = Metabolic stability test in pooled human liver microsomes; assay type: in vitro ADME; settings: human liver microsomes 0.5 mg protein/mL, 1 mmol/L NADPH, 37° C., 30 minutes
Protocol: Using a commercially available pooled human liver microsomes, a compound of the present invention was reacted for a constant time, a remaining rate was calculated by comparing a reacted sample and an unreacted sample, thereby, a degree of metabolism in liver was assessed.
A reaction was performed (oxidative reaction) at 37° C. for 0 minute or 30 minutes in the presence of 1 mmol/L NADPH in 0.2 mL of a buffer (50 mmol/L Tris-HCl pH 7.4, 150 mmol/L potassium chloride, 10 mmol/L magnesium chloride) containing 0.5 mg protein/mL of human liver microsomes. After the reaction, 50 μL of the reaction solution was added to 100 μL of a methanol/acetonitrile=1/1 (v/v), mixed and centrifuged at 3000 rpm for 15 minutes. The compound of the present invention in the supernatant was quantified by LC/MS/MS or solid phase extraction (SPE)/MS, and a remaining amount of the compound of the present invention after the reaction was calculated, letting a compound amount at 0 minute reaction time to be 100%.

[3] = Mycobacterium avium, ATCC700898, M. avium ATCC700898, CAMHB medium, read-out: IC85

Which IC85 [1, 3] does the source give for `COc1ccn2nc(C)c(C(=O)NCc3ccc(C4CCN(c5ccc(OC(F)(F)F)cc5)CC4)c(F)c3)c2c1.Cl` [Compound I-1-89] here?
Its IC85 is 7.2 nM.

What about the “MS_h_% (remaining amount of compound after reaction, 0 minute = 100%)” value [2] of the same molecule?
Its value is 65%.

Which IC85 [1, 3] does the source give for `COc1ccn2nc(C)c(C(=O)NCc3ccc(N4CCN(c5ccc(OC(F)(F)F)cc5)[C@@H](C)C4)c(F)c3)c2c1.Cl` [Compound I-1-90] here?
The IC85 was 5.2 nM.

And the “MS_h_% (remaining amount of compound after reaction, 0 minute = 100%)” value [2]?
Its value is 91%.

With `COc1ccn2nc(C)c(C(=O)NCc3ccc(N4CCN(c5ccc(OC(F)(F)F)cc5)[C@H](C)C4)c(F)c3)c2c1.Cl` [Compound I-1-91] as the molecule, how does the IC85 [1, 3] read?
The IC85 was 5.3 nM.

What about the “MS_h_% (remaining amount of compound after reaction, 0 minute = 100%)” value [2] of the same molecule?
The value was 89%.

With `CCc1nc2ccc(Cl)cn2c1C(=O)NCc1cc(F)c(N2CCN(c3ccc(OC(F)(F)F)cc3)[C@@H](C)C2)c(F)c1.Cl` [Compound I-1-92] as the molecule, how does the IC85 [1, 3] read?
The IC85 was 5.5 nM.

What about the “MS_h_% (remaining amount of compound after reaction, 0 minute = 100%)” value [2] of the same molecule?
Its value is 66%.

Which results are given for `CCc1nc2ccc(Cl)cn2c1C(=O)NCc1ccc(N2CCN(c3ccc(OC(F)(F)F)cc3)[C@@H](C)C2)c(F)c1F.Cl` [Compound I-1-93]?
IC85 [1, 3]: 11 nM; MS_h_% (remaining amount of compound after reaction, 0 minute = 100%) [2]: 67%

With `CCc1nc2ccc(Cl)cn2c1C(=O)NCc1cc(F)c(N2CCN(c3ccc(OC(F)(F)F)cc3)[C@@H](C)C2)cc1F.Cl` [Compound I-1-94] as the molecule, how does the IC85 [1, 3] read?
The IC85 was 14 nM.

What about the “MS_h_% (remaining amount of compound after reaction, 0 minute = 100%)” value [2] of the same molecule?
Its value is 67%.

Which results are given for `CCc1nc2cc(F)ccn2c1C(=O)NCc1cc(F)c(N2CCN(c3ccc(OC(F)(F)F)cc3)[C@@H](C)C2)c(F)c1.Cl` [Compound I-1-95]?
IC85 [1, 3]: 2.2 nM; MS_h_% (remaining amount of compound after reaction, 0 minute = 100%) [2]: 91%

Which results are given for `CCc1nc2cc(F)ccn2c1C(=O)NCc1ccc(N2CCN(c3ccc(OC(F)(F)F)cc3)[C@@H](C)C2)c(F)c1F.Cl` [Compound I-1-96]?
IC85 [1, 3]: 11 nM; MS_h_% (remaining amount of compound after reaction, 0 minute = 100%) [2]: 90%

For `CCc1nc2cc(F)ccn2c1C(=O)NCc1cc(F)c(N2CCN(c3ccc(OC(F)(F)F)cc3)[C@@H](C)C2)cc1F.Cl` [Compound I-1-97], which IC85 [1, 3] is on record?
Its IC85 is 7.2 nM.

And the “MS_h_% (remaining amount of compound after reaction, 0 minute = 100%)” value [2]?
The value was 86%.

Which IC85 [1, 3] does the source give for `CCc1nc2ccc(Cl)cn2c1C(=O)NCc1ccc(N2CCN(c3ccc(OC(F)(F)F)cc3F)[C@@H](C)C2)c(F)c1.Cl` [Compound I-1-98] here?
Its IC85 is 8.8 nM.

And the “MS_h_% (remaining amount of compound after reaction, 0 minute = 100%)” value [2]?
The value was 76%.

For `CCc1nc2ccc(Cl)cn2c1C(=O)NCc1ccc(N2CCN(c3ncc(C(F)(F)F)cc3F)[C@@H](C)C2)c(F)c1.Cl` [Compound I-1-99], which IC85 [1, 3] is on record?
Its IC85 is 35 nM.

And the “MS_h_% (remaining amount of compound after reaction, 0 minute = 100%)” value [2]?
The value was 77%.

Which IC85 [1, 3] does the source give for `CCOc1ccc(N2CCN(c3ccc(CNC(=O)c4c(CC)nc5ccc(Cl)cn45)c(F)c3)C[C@@H]2C)cc1.Cl` [Compound I-1-100] here?
Its IC85 is 46 nM.

What about the “MS_h_% (remaining amount of compound after reaction, 0 minute = 100%)” value [2] of the same molecule?
Its value is 65%.

With `CCOc1ccc(N2CCN(c3ccc(CNC(=O)c4c(CC)nc5ccc(Cl)cn45)c(F)c3)C[C@@H]2C)c(F)c1.Cl` [Compound I-1-101] as the molecule, how does the IC85 [1, 3] read?
The IC85 was 470 nM.

What about the “MS_h_% (remaining amount of compound after reaction, 0 minute = 100%)” value [2] of the same molecule?
The value was 90%.

With `CCc1nc2ccc(Cl)cn2c1C(=O)NCc1ccc(N2CCN(c3ccc(OCC4CC4)cc3)[C@@H](C)C2)cc1F.Cl` [Compound I-1-102] as the molecule, how does the IC85 [1, 3] read?
The IC85 was 24 nM.

And the “MS_h_% (remaining amount of compound after reaction, 0 minute = 100%)” value [2]?
The value was 75%.

Which IC85 [1, 3] does the source give for `CCCCOc1ccc(N2CCN(c3ccc(CNC(=O)c4c(CC)nc5ccc(Cl)cn45)c(F)c3)C[C@@H]2C)cc1.Cl` [Compound I-1-103] here?
Its IC85 is 19 nM.

What about the “MS_h_% (remaining amount of compound after reaction, 0 minute = 100%)” value [2] of the same molecule?
The value was 64%.

Which results are given for `Cc1nn2ccccc2c1C(=O)NCc1ccc(N2CCN(c3ccc(OC(F)(F)F)cc3)[C@@H](C)C2)c(F)c1.Cl` [Compound I-1-104]?
IC85 [1, 3]: 92 nM; MS_h_% (remaining amount of compound after reaction, 0 minute = 100%) [2]: 72%

Which IC85 [1, 3] does the source give for `Cc1nn2cc(F)ccc2c1C(=O)NCc1ccc(N2CCN(c3ccc(OC(F)(F)F)cc3)[C@@H](C)C2)c(F)c1.Cl` [Compound I-1-105] here?
Its IC85 is 59 nM.

What about the “MS_h_% (remaining amount of compound after reaction, 0 minute = 100%)” value [2] of the same molecule?
The value was 77%.

Which results are given for `CCc1nc2ccc(Cl)cn2c1C(=O)NCc1ccc(C2CCN(c3ccc(OC(F)(F)F)cc3)[C@@H](C)C2)c(F)c1.Cl` (stereo partly drawn) [Compound I-1-106]?
IC85 [1, 3]: 6.2 nM; MS_h_% (remaining amount of compound after reaction, 0 minute = 100%) [2]: 59%

Which IC85 [1, 3] does the source give for `CCc1nc2ccc(Cl)cn2c1C(=O)NCc1ccc(C2=C[C@H](C)N(c3ccc(OC(F)(F)F)cc3)CC2)c(F)c1.Cl` [Compound I-1-107] here?
The IC85 was 7 nM.

And the “MS_h_% (remaining amount of compound after reaction, 0 minute = 100%)” value [2]?
The value was 71%.

Which IC85 [1, 3] does the source give for `CCc1nc2cc(F)ccn2c1C(=O)NCc1ccc(N2CCN(c3ccc(OC(F)(F)F)cn3)[C@@H](C)C2)c(F)c1.Cl` [Compound I-1-108] here?
Its IC85 is 4.2 nM.

And the “MS_h_% (remaining amount of compound after reaction, 0 minute = 100%)” value [2]?
The value was 71%.

Which IC85 [1, 3] does the source give for `CCOc1ccc(N2CCN(c3ccc(CNC(=O)c4c(CC)nc5cc(F)ccn45)cc3F)C[C@@H]2C)cc1.Cl` [Compound I-1-109] here?
The IC85 was 7.1 nM.

And the “MS_h_% (remaining amount of compound after reaction, 0 minute = 100%)” value [2]?
Its value is 80%.

Which results are given for `CCc1nc2cc(F)ccn2c1C(=O)NCc1ccc(N2CCN(c3ccc(OC4CC4)cc3)[C@@H](C)C2)c(F)c1.Cl` [Compound I-1-110]?
IC85 [1, 3]: 9.3 nM; MS_h_% (remaining amount of compound after reaction, 0 minute = 100%) [2]: 80%

Which IC85 [1, 3] does the source give for `CCc1nc2cc(F)ccn2c1C(=O)NCc1ccc(N2CCN(c3ccc(OC(C)C)cc3)[C@@H](C)C2)c(F)c1.Cl` [Compound I-1-111] here?
Its IC85 is 7.1 nM.

What about the “MS_h_% (remaining amount of compound after reaction, 0 minute = 100%)” value [2] of the same molecule?
Its value is 88%.

Which IC85 [1, 3] does the source give for `CCc1nc2cc(F)ccn2c1C(=O)NCc1ccc(N2CCN(c3ccc(C(F)(F)F)cc3)[C@@H](C)C2)c(F)c1.Cl` [Compound I-1-112] here?
The IC85 was 1.4 nM.

And the “MS_h_% (remaining amount of compound after reaction, 0 minute = 100%)” value [2]?
The value was 69%.

Which IC85 [1, 3] does the source give for `CCc1nc2cc(F)ccn2c1C(=O)NCc1ccc(N2CCN(c3ccc(C(F)(F)F)cn3)[C@@H](C)C2)c(F)c1.Cl` [Compound I-1-113] here?
The IC85 was 4.8 nM.

What about the “MS_h_% (remaining amount of compound after reaction, 0 minute = 100%)” value [2] of the same molecule?
The value was 79%.

Which IC85 ([1]; M. avium ATCC700898, CAMHB medium) does the source give for `CCc1nc2cc(F)ccn2c1C(=O)NCc1ccc(N2CCN(c3ccc(C(F)(F)F)cn3)[C@@H](C)C2)c(F)c1.Cl` [Compound I-1-114] here?
Its IC85 is 7.4 nM.

What about the “MS_h_% (remaining amount of compound after reaction, 0 minute = 100%)” value [2] of the same molecule?
Its value is 87%.

Which results are given for `CCc1nc2cc(F)ccn2c1C(=O)NCc1ccc(N2CCN(c3ccc(OCC(F)(F)F)cc3)[C@@H](C)C2)c(F)c1.Cl` [Compound I-1-115]?
IC85 [1, 3]: 4.6 nM; MS_h_% (remaining amount of compound after reaction, 0 minute = 100%) [2]: 69%

For `CCc1nc2cc(F)ccn2c1C(=O)NCc1ccc(N2CCN(c3ccc(OCC(F)(F)F)nc3)[C@@H](C)C2)c(F)c1.Cl` [Compound I-1-116], which IC85 [1, 3] is on record?
Its IC85 is 11 nM.

And the “MS_h_% (remaining amount of compound after reaction, 0 minute = 100%)” value [2]?
Its value is 87%.

What does the source list for `CCc1nc2cc(F)ccn2c1C(=O)NCc1ccc(N2CCN(c3ccc(OC(F)(F)F)c(F)c3)[C@@H](C)C2)c(F)c1.Cl` [Compound I-1-117]?
IC85 [1, 3]: 2.5 nM; MS_h_% (remaining amount of compound after reaction, 0 minute = 100%) [2]: 83%

What does the source list for `CCc1nc2cc(F)ccn2c1C(=O)NCc1ccc(N2CCN(c3ccc(OC(F)(F)F)cc3F)[C@@H](C)C2)c(F)c1.Cl` [Compound I-1-118]?
IC85 [1, 3]: 7.6 nM; MS_h_% (remaining amount of compound after reaction, 0 minute = 100%) [2]: 97%

With `CCc1nc2cc(F)ccn2c1C(=O)NCc1ccc(N2CCN(c3cc(F)c(OC(F)(F)F)c(F)c3)[C@@H](C)C2)c(F)c1.Cl` [Compound I-1-119] as the molecule, how does the IC85 [1, 3] read?
Its IC85 is 6.5 nM.

What about the “MS_h_% (remaining amount of compound after reaction, 0 minute = 100%)” value [2] of the same molecule?
The value was 63%.

For `CCOc1ccc(N2CCN(c3ccc(CNC(=O)c4c(CC)nc5cc(F)ccn45)cc3F)C[C@@H]2C)cn1.Cl` [Compound I-1-120], which IC85 [1, 3] is on record?
The IC85 was 12 nM.

What about the “MS_h_% (remaining amount of compound after reaction, 0 minute = 100%)” value [2] of the same molecule?
The value was 71%.

Which results are given for `CCc1nc2cc(F)ccn2c1C(=O)NCc1ccc(N2CCN(c3ccc(OC(F)(F)C(F)(F)F)cc3)[C@@H](C)C2)c(F)c1.Cl` [Compound I-1-121]?
IC85 [1, 3]: 3 nM; MS_h_% (remaining amount of compound after reaction, 0 minute = 100%) [2]: 95%

Source: patent publication US20220340566A1, “BENZYL AMINE-CONTAINING 5,6-HETEROAROMATIC COMPOUNDS USEFUL AGAINST MYCOBACTERIAL INFECTION” (priority 2019, published 2022)
